This note sets out measurements from patent US11504364B2, “Inhibitors of fibroblast activation protein” (Praxis Biotech LLC, priority 2018, dated 2022).

In assay [1] the target is recombinant human DPPIV (rhDPPIV) (Homo sapiens (Human), UniProt P27487). Nature of the assay: DPPIV enzymatic activity assay. The class given is biochemical. To be noted: Table 3B.
The target of assay [2] is recombinant human DPP9 (rhDPP9) (Homo sapiens (Human), UniProt Q86TI2). Kind of assay: Inhibition of DPP9 activity, 10 ng rhDPP9, H-Gly-Pro-AMC. The class given is biochemical. The conditions noted are these: Table 3B.
The test system of assay [3] is human AML cell line MV4-11. Kind of assay: Cytotoxicity assay in human leukemia cell lines (Cell-Titer Glo). To be noted: Homo sapiens, MV4-11, 48 h, read-out: MV4-11 viability IC50, μM.
In assay [4] the target is recombinant human FAPα (rhFAPα) (Homo sapiens (Human), UniProt Q12884). Nature of the assay: FAPα enzymatic exopeptidase (dipeptidase) activity assay, Z-Gly-Pro-AMC. The class given is biochemical. The conditions noted are these: for inhibition at 1 µM: 1 μM test compound, exopeptidase, Table 3B, read-out: rhFAPα (% exo inh @ 1 μM).
Sequence of recombinant human FAPα (rhFAPα) (Q12884 whole entry): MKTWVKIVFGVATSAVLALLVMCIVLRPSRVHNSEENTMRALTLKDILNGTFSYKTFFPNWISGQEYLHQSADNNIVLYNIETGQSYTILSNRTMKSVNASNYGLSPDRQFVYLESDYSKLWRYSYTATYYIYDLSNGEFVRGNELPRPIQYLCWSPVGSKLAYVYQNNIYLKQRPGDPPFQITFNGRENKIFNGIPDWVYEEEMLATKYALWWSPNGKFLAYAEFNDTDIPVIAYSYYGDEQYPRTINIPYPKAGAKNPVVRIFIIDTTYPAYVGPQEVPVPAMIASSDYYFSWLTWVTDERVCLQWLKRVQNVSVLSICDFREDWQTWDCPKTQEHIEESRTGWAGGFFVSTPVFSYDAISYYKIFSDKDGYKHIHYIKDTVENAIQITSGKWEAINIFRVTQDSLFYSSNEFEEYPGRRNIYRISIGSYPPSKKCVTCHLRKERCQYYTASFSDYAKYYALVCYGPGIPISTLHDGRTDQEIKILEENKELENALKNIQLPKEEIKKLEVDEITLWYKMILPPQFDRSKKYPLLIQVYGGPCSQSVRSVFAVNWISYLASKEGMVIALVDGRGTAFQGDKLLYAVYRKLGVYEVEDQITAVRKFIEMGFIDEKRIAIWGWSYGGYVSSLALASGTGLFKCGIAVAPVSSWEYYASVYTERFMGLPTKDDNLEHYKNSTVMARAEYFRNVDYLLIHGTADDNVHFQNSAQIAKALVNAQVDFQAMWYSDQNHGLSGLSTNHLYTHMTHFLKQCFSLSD

Sequence of recombinant human DPPIV (rhDPPIV) (P27487 whole entry): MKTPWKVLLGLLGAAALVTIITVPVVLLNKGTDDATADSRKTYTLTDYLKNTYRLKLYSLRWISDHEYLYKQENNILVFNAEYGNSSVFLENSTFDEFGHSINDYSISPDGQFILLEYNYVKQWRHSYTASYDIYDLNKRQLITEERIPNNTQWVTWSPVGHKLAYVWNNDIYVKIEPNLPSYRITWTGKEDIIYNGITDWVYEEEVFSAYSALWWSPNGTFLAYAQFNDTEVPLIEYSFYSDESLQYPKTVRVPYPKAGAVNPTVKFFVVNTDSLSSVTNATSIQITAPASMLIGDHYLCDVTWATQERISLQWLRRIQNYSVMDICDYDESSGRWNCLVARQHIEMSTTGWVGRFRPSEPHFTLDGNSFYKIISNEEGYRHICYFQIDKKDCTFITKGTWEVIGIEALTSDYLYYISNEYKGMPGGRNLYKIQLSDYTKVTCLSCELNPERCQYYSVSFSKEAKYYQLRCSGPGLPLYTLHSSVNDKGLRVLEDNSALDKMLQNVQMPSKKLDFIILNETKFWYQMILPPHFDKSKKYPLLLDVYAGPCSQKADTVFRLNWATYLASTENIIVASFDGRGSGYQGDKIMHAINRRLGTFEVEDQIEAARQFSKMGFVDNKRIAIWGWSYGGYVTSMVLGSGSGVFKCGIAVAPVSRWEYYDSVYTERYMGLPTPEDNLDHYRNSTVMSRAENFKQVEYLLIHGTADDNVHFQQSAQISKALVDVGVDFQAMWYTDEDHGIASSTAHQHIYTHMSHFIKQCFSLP
Sequence of recombinant human DPP9 (rhDPP9) (Q86TI2 whole entry): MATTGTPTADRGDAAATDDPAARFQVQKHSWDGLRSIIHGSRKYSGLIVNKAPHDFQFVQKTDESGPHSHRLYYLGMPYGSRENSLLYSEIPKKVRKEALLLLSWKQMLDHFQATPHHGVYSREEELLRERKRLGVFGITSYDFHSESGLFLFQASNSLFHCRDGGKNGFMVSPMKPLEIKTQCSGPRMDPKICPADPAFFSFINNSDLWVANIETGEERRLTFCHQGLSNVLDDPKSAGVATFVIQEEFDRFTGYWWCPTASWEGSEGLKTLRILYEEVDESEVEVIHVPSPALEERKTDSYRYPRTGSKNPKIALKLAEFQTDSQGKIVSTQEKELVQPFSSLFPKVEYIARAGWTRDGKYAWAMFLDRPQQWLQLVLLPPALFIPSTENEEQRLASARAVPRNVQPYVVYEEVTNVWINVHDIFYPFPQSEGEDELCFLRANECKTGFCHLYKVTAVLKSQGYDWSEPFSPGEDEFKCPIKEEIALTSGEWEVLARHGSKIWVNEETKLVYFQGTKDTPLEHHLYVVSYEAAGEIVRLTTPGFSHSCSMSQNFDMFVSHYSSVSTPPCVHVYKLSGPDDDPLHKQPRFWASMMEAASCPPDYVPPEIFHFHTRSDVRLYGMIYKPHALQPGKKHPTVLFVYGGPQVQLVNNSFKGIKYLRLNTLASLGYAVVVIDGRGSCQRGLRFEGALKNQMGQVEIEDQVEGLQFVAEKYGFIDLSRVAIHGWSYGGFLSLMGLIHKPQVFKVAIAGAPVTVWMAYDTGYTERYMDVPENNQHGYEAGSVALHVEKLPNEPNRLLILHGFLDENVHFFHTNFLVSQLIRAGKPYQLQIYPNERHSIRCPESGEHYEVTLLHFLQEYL

Turning to `N#C[C@@H]1CC(F)(F)CN1C(=O)CNC(=O)c1ccnc2ccc(-c3ccc4cc(Cl)ccc4c3)cc12` [Compound 3, (S)-6-(6-chloronaphthalen-2-yl)-N-(2-(2-cyano-4,4-difluoropyrrolidin-1-yl)-2-oxoethyl)quinoline-4-carboxamide], the figures for the IC50 in assay [1], in assay [2] and in assay [3] were 1000 to 10000 nM, less than 1000 nM and 3 to 10 µM, respectively.

On to `N#C[C@@H]1CC(F)(F)CN1C(=O)CNC(=O)c1ccnc2ccc(-c3ccc4c(c3)C(=O)NCC4)cc12` [Compound 107], for which the 50% inhibitory concentration (IC50) in assay [1] is 1000 to 10000 nM; in assay [2], less than 1000 nM; in assay [4], less than 1000 nM. For the same compound, the inhibition at 1 µM in assay [4] is more than 50%.

Turning to `N#C[C@@H]1CC(F)(F)CN1C(=O)CNC(=O)c1ccnc2ccc(-c3ccc4c(c3)CCCN4)cc12` [Compound 113], the half-maximal inhibitory concentration (IC50) in assay [1] is 1000 to 10000 nM; in assay [2] it was less than 1000 nM; in assay [4], less than 1000 nM. In addition, the inhibition at 1 µM in assay [4] is more than 50%.

Take `COc1ccc(-c2ccc3nccc(C(=O)NCC(=O)N4CC(F)(F)C[C@H]4C#N)c3c2)cc1` [Compound 30]: the IC50 in assay [1] was 1000 to 10000 nM; in assay [2], less than 1000 nM; in assay [3], 3 to 10 µM.

For the compound `CC(=O)Nc1ccccc1-c1ccc2nccc(C(=O)NCC(=O)N3CC(F)(F)C[C@H]3C#N)c2c1` [Compound 99], the IC50 in assay [1] was more than 10000 nM. In addition, the inhibition at 1 µM in assay [4] is more than 50%.

As for `COCCOc1ccc(-c2ccc3nccc(C(=O)NCC(=O)N4CC(F)(F)C[C@H]4C#N)c3c2)cc1` [Compound 35], the concentration for half-maximal inhibition (IC50) in assay [2] and in assay [4] was less than 1000 nM each time. In addition, the inhibition at 1 µM in assay [4] is more than 50%.

Regarding `N#C[C@@H]1CC(F)(F)CN1C(=O)CNC(=O)c1ccnc2ccc(/C=C/c3cccnc3)cc12` [Compound 20], the half-inhibitory concentration (IC50) is more than 10000 nM in assay [1], less than 1000 nM in assay [2] and 3 to 10 µM in assay [3].

For `N#C[C@@H]1CC(F)(F)CN1C(=O)CNC(=O)c1ccnc2ccc(-c3ccc(C4CC4)nc3)cc12` [Compound 25], the half-inhibitory concentration (IC50) in assay [2] is less than 1000 nM. Also, in assay [4], the IC50 is less than 1000 nM and the inhibition at 1 µM is more than 50%.

For the compound `N#C[C@@H]1CC(F)(F)CN1C(=O)CNC(=O)c1ccnc2ccc(/C=C/c3ccc4[nH]ncc4c3)cc12` [Compound 112], the IC50 in assay [1], in assay [2] and in assay [4] was less than 1000 nM in each case. Also, the inhibition at 1 µM in assay [4] is more than 50%.

With `N#C[C@@H]1CC(F)(F)CN1C(=O)CNC(=O)c1ccnc2ccc(-c3ccc4c(c3)CCNC4=O)cc12` [Compound 18, (S)—N-(2-(2-cyano-4,4-difluoropyrrolidin-1-yl)-2-oxoethyl)-6-(1-oxo-1,2,3,4-tetrahydroisoquinolin-6-yl)quinoline-4-carboxamide], the concentration for half-maximal inhibition (IC50) in assay [1] and in assay [2] was less than 1000 nM throughout.

For the compound `Cc1ccc(-c2ccc3nccc(C(=O)NCC(=O)N4CC(F)(F)C[C@H]4C#N)c3c2)cn1` [Compound 23], the 50% inhibitory concentration (IC50) in assay [2] and in assay [4] was less than 1000 nM in each case. Also, the inhibition at 1 µM in assay [4] was more than 50%.

`N#C[C@@H]1CC(F)(F)CN1C(=O)CNC(=O)c1ccnc2ccc(-c3ccc4c(c3)CCNC4)cc12` [Compound 114]: in assay [1], the IC50 was more than 10000 nM. Further, the inhibition at 1 µM in assay [4] is more than 50%.

As to `COc1ccc(-c2ccc3nccc(C(=O)NCC(=O)N4CC(F)(F)C[C@H]4C#N)c3c2)cn1` [Compound 33], the concentration for half-maximal inhibition (IC50) in assay [2] was less than 1000 nM. In addition, in assay [4], the 50% inhibitory concentration (IC50) is less than 1000 nM and the inhibition at 1 µM is more than 50%.

Consider `Cn1ccc2cc(-c3ccc4nccc(C(=O)NCC(=O)N5CC(F)(F)C[C@H]5C#N)c4c3)ccc21` [Compound 8, (S)—N-(2-(2-cyano-4,4-difluoropyrrolidin-1-yl)-2-oxoethyl)-6-(1-methyl-1H-indol-5-yl)quinoline-4-carboxamide], for which the half-maximal inhibitory concentration (IC50) in assay [1] was 1000 to 10000 nM; in assay [2] it was less than 1000 nM.

Turning to `N#C[C@@H]1CC(F)(F)CN1C(=O)CNC(=O)c1ccnc2ccc(-c3ccc4c(c3)CCN4)cc12` [Compound 12, (S)—N-(2-(2-cyano-4,4-difluoropyrrolidin-1-yl)-2-oxoethyl)-6-(indolin-5-yl)quinoline-4-carboxamide], the IC50 was more than 10000 nM in assay [1] and less than 1000 nM in assay [2].

For the compound `N#C[C@@H]1CC(F)(F)CN1C(=O)CNC(=O)c1ccnc2ccc(-c3ccc4[nH]ncc4c3)cc12` [Compound 101], in assay [2], the half-inhibitory concentration (IC50) was less than 1000 nM. Also, in assay [4], the IC50 was less than 1000 nM and the inhibition at 1 µM is more than 50%.

For the compound `N#C[C@@H]1CC(F)(F)CN1C(=O)CNC(=O)c1ccnc2ccc(-c3cccnc3)cc12` [Compound 5, (S)—N-(2-(2-cyano-4,4-difluoropyrrolidin-1-yl)-2-oxoethyl)-6-(pyridin-3-yl)quinoline-4-carboxamide], the IC50 is more than 10000 nM in assay [1] and less than 1000 nM in assay [2].

On to `N#C[C@@H]1CC(F)(F)CN1C(=O)CNC(=O)c1ccnc2ccc(-c3ccccc3)cc12` [Compound 1, (S)—N-(2-(2-cyano-4,4-difluoropyrrolidin-1-yl)-2-oxoethyl)-6-phenylquinoline-4-carboxamide], for which, in assay [1], the IC50 is more than 10000 nM. The inhibition at 1 µM in assay [4] was more than 50%.

With `N#C[C@@H]1CC(F)(F)CN1C(=O)CNC(=O)c1ccnc2ccc(/C=C/c3ccccc3)cc12` [Compound 14, (S,E)-N-(2-(2-cyano-4,4-difluoropyrrolidin-1-yl)-2-oxoethyl)-6-styrylquinoline-4-carboxamide], the IC50 in assay [1] was more than 10000 nM; in assay [2] it was less than 1000 nM.

Consider `CC(=O)Nc1cccc(-c2ccc3nccc(C(=O)NCC(=O)N4CC(F)(F)C[C@H]4C#N)c3c2)c1` [Compound 98], for which the IC50 is more than 10000 nM in assay [1] and less than 1000 nM in assay [2].

For the compound `CNC(=O)c1ccc(-c2ccc3nccc(C(=O)NCC(=O)N4CC(F)(F)C[C@H]4C#N)c3c2)cc1` [Compound 100], the values for the IC50 in assay [1] and in assay [2] were more than 10000 nM and less than 1000 nM, respectively.

On to `C[C@@H](NC(=O)c1ccnc2ccc(-c3ccc(Cl)cc3)cc12)C(=O)N1CC(F)(F)C[C@H]1C#N` [Compound 26], for which the IC50 in assay [1] was more than 10000 nM; in assay [2], less than 1000 nM. Further, the inhibition at 1 µM in assay [4] fell in the range of 25 to 50%.

On to `N#C[C@@H]1CC(F)(F)CN1C(=O)CNC(=O)c1ccnc2ccc(-c3ccc4c(c3)CC(=O)N4)cc12` [Compound 106], for which the half-inhibitory concentration (IC50) in assay [2] and in assay [4] was less than 1000 nM each time. For the same compound, the inhibition at 1 µM in assay [4] is more than 50%.

Consider `CNC(=O)c1cccc(-c2ccc3nccc(C(=O)NCC(=O)N4CC(F)(F)C[C@H]4C#N)c3c2)c1` [Compound 102], for which the IC50 is more than 10000 nM in assay [1] and less than 1000 nM in assay [2].

Turning to `N#C[C@@H]1CC(F)(F)CN1C(=O)CNC(=O)c1ccnc2ccc(/C=C/c3ccc4c(c3)CCC(=O)N4)cc12` [Compound 37], the IC50 in assay [2] and in assay [4] was less than 1000 nM throughout. In assay [4], the inhibition at 1 µM was more than 50%.

`CN1CCc2cc(-c3ccc4nccc(C(=O)NCC(=O)N5CC(F)(F)C[C@H]5C#N)c4c3)ccc2C1=O` [Compound 111]: the IC50 in assay [1] is 1000 to 10000 nM; in assay [2], less than 1000 nM; in assay [4], less than 1000 nM. Besides, the inhibition at 1 µM in assay [4] was more than 50%.

With `CN(C)c1ccc2cc(-c3ccc4nccc(C(=O)NCC(=O)N5CC(F)(F)C[C@H]5C#N)c4c3)ccc2c1` [Compound 15, (S)—N-(2-(2-cyano-4,4-difluoropyrrolidin-1-yl)-2-oxoethyl)-6-(6-(dimethylamino)naphthalen-2-yl)quinoline-4-carboxamide], the half-maximal inhibitory concentration (IC50) in assay [1] is more than 10000 nM; in assay [2] it was less than 1000 nM.

With `CC(C)Oc1ccc(-c2ccc3nccc(C(=O)NCC(=O)N4CC(F)(F)C[C@H]4C#N)c3c2)cn1` [Compound 34], the IC50 in assay [2] was less than 1000 nM. In addition, in assay [4], the IC50 is less than 1000 nM and the inhibition at 1 µM is more than 50%.

For the compound `N#C[C@@H]1CC(F)(F)CN1C(=O)CNC(=O)c1ccnc2ccc(-c3ccc4c(c3)OCCO4)cc12` [Compound 24], in assay [2], the concentration for half-maximal inhibition (IC50) is less than 1000 nM. Moreover, in assay [4], the concentration for half-maximal inhibition (IC50) is less than 1000 nM and the inhibition at 1 µM is more than 50%.

Regarding `CN1CCN(Cc2ccc(-c3ccc4nccc(C(=O)NCC(=O)N5CC(F)(F)C[C@H]5C#N)c4c3)cc2)CC1` [Compound 32], in assay [1], the IC50 is more than 10000 nM. For the same compound, in assay [4], the inhibition at 1 µM is more than 50%.

On to `N#C[C@@H]1CC(F)(F)CN1C(=O)CNC(=O)c1ccnc2ccc(/C=C/c3ccc4ncccc4c3)cc12` [Compound 105], for which the inhibition at 1 µM in assay [4] is more than 50%.

For `CC(C)(C)c1ccc(-c2ccc3nccc(C(=O)NCC(=O)N4CC(F)(F)C[C@H]4C#N)c3c2)cc1` [Compound 7, (S)-6-(4-(tert-butyl)phenyl)-N-(2-(2-cyano-4,4-difluoropyrrolidin-1-yl)-2-oxoethyl)quinoline-4-carboxamide], the 50% inhibitory concentration (IC50) in assay [1] was more than 10000 nM; in assay [2], less than 1000 nM.

Regarding `C[C@H](NC(=O)c1ccnc2ccc(-c3ccc(Cl)cc3)cc12)C(=O)N1CC(F)(F)C[C@H]1C#N` [Compound 27], the figures for the 50% inhibitory concentration (IC50) in assay [1] and in assay [2] were more than 10000 nM and less than 1000 nM, respectively. In addition, the inhibition at 1 µM in assay [4] is less than 25%.

In the case of `N#C[C@@H]1CC(F)(F)CN1C(=O)CNC(=O)c1ccnc2ccc(-c3c[nH]c4ccccc34)cc12` [Compound 103], the IC50 in assay [2] and in assay [4] was less than 1000 nM each time. For the same compound, the inhibition at 1 µM in assay [4] is more than 50%.

Turning to `Cc1noc(C)c1-c1ccc2nccc(C(=O)NCC(=O)N3CC(F)(F)C[C@H]3C#N)c2c1` [Compound 4, (S)—N-(2-(2-cyano-4,4-difluoropyrrolidin-1-yl)-2-oxoethyl)-6-(3,5-dimethylisoxazol-4-yl)quinoline-4-carboxamide], the half-maximal inhibitory concentration (IC50) in assay [1] is more than 10000 nM. Also, the inhibition at 1 µM in assay [4] is more than 50%.

As a reminder, the IC50 is the concentration needed to halve the response being measured.
